Source: article PMC6422423, “Constitutively active BRS3 is a genuinely orphan GPCR in placental mammals” (PLoS Biology, 2019)

Columns and labels:
[1] = molecular target: chicken BRS3 (cBRS3); experiment: Radioligand binding (competition); parameters: species or system Gallus gallus; conditions: transfected HEK293 cells, 1 h 21°C, pH 7.4, mean ± SE, at least three experiments
Description: HEK293 cells were seeded in a 10-cm tissue culture dish at a density of 10^6 cells per dish and grown overnight at 37°C in growth medium. The following morning, 5 μg of different species’ BRS3 plasmids were transfected. After 6 h, the medium was replaced with growth medium. Cells were maintained at 37°C in a 5% CO2 atmosphere and used 48 h later for binding assays. The positive control group included transfected GRPR and NMBR; the test group consisted of transfected BRS3 from different species. […] The cell concentration was adjusted to between 0.05 and 4 × 10^6 cells/ml for each receptor such that less than 20% of the total added radioactive ligand was bound during the incubation, and the results were compared to cells transfected with GRPR or NMBR adjusted in concentration to bind a similar amount of ligand. After the incubation, 100 μl aliquots were added to 1.5-ml microfuge tubes, which contained 100 μl of binding buffer to determine the total radioactivity. The bound tracer was separated from unbound tracer by pelleting the cells through the binding buffer by centrifugation at 10,000g in a Microfuge E (Beckman) for 3 min. The supernatant was aspirated, and the pelleted cells were rinsed twice with a washing buffer that contained 1% (w/v) BSA in PBS. The amount of radioactivity bound to the cells was measured in a Cobra II Gamma counter (Packard Instruments). Binding was expressed as the percentage of total radioactivity that was associated with the cell pellet. […] Each point was measured in duplicate, and each experiment was replicated at least four times. […] All the experiment data were calculated using 1 pM ligand-treated as 100% control.

[2] = molecular target: spotted gar BRS3 (sBRS3); experiment: Radioligand binding (competition); parameters: species or system Lepisosteus oculatus; conditions: transfected HEK293 cells, 1 h 21°C, pH 7.4, mean ± SE, at least three experiments
Description: (§1) HEK293 cells were seeded in a 10-cm tissue culture dish at a density of 10^6 cells per dish and grown overnight at 37°C in growth medium. The following morning, 5 μg of different species’ BRS3 plasmids were transfected. After 6 h, the medium was replaced with growth medium. Cells were maintained at 37°C in a 5% CO2 atmosphere and used 48 h later for binding assays. The positive control group included transfected GRPR and NMBR; the test group consisted of transfected BRS3 from different species. Then, [^125I]-Tyr^42-GRP and [^125I]-Tyr-NMB were used as the ligands to assess affinity to the various receptors. […] The cell concentration was adjusted to between 0.05 and 4 × 10^6 cells/ml for each receptor such that less than 20% of the total added radioactive ligand was bound during the incubation, and the results were compared to cells transfected with GRPR or NMBR adjusted in concentration to bind a similar amount of ligand. After the incubation, 100 μl aliquots were added to 1.5-ml microfuge tubes, which contained 100 μl of binding buffer to determine the total radioactivity. The bound tracer was separated from unbound tracer by pelleting the cells through the binding buffer by centrifugation at 10,000g in a Microfuge E (Beckman) for 3 min. The supernatant was aspirated, and the pelleted cells were rinsed twice with a washing buffer that contained 1% (w/v) BSA in PBS. The amount of radioactivity bound to the cells was measured in a Cobra II Gamma counter (Packard Instruments). Binding was expressed as the percentage of total radioactivity that was associated with the cell pellet. All binding values represented saturable binding; nonsaturable binding was <15% of the total binding in all experiments. Each point was measured in duplicate, and each experiment was replicated at least four times. […] All the experiment data were calculated using 1 pM ligand-treated as 100% control.

[3] = molecular target: placental mammalian BRS3 (hBRS3, mBRS3, and aBRS3); experiment: Radioligand binding, placental mammals pooled; parameters: species or system human, mouse, aardvark; conditions: for Ki: BRS3s in placental mammals; for Direct binding (in words): hBRS3, mBRS3, aBRS3, transfected HEK293 cells
Description: as §1

[4] = tested on: BRS3 receptors in nonplacental vertebrates; experiment: Intracellular calcium assay, nonplacental pooled; format: cell-based, koala, platypus, chicken, turtle, frog, and spotted gar; conditions: 10 nM peptide, HEK293
Description: (§2) Intracellular calcium was measured using the non-wash calcium assay Fluo8 kit (ab112129, Abcam) according to the manufacturer’s instructions. Briefly, HEK293 cells were seeded in 24-well plates and were transfected with GRPR, NMBR, BRS3, or the empty vector plasmid pcDNA3.1-V5-His (300 ng) and incubated overnight at 37°C with 5% CO2. The next day, the cells were replated into a 96-well assay plate (black plate and clear bottom). After 12 h, growth media were aspirated, and calcium dye was added. […] The basal fluorescence intensity was recorded 15 times at 1 Hz for […]. The results were normalized to the average basal fluorescence intensity in ratio, and the peak response was used for the result calculation. Calcium fold was calculated using no stimulation data as standard value.

[5] = tested on: BRS3 receptors in placental mammals; experiment: Intracellular calcium assay, placental pooled; format: cell-based, human, mouse, dog, and aardvark; conditions: 10 nM peptide, HEK293
Description: as §2

[6] = tested on: BRS3 receptors of placental mammals; experiment: Luciferase reporter, GRP/NMB stimulated, placental pooled; format: cell-based, human, mouse, dog, and aardvark; conditions: CRE/NFAT-RE/SRF-RE/SRE reporters; 0/10/100/1,000 nM, 12 h, HEK293
Description: To detect constitutive activity of BRS3, HEK293 cells were seeded in 24-well plates and cotransfected with the CRE/NFAT-RE/SRF-RE/SRE luciferase reporter plasmids (50 ng), the BRS3 from different species, or BRS3 mutants with different doses (10 ng/50 ng/150 ng); after 24 h, cells were further incubated in serum-free media for another 12 h before luciferase assay. As for peptide supplementation treatment, HEK293 cells were cotransfected with the CRE/NFAT-RE/SRF-RE/SRE luciferase reporter plasmids (50 ng) and various genes (300 ng) of the bombesin receptor family. […] Luciferase activities were determined using luciferase assay kits (Beyotime, Shanghai, China) and normalized to β-galactosidase activity. All experiments were performed at least three times in triplicates. HEK293 cells transfected with pcDNA were used as a blank control in all luciferase experiments, and the fold was calculated compared to blank control.

Substance	IC50 ([1]; 50 pM [125I]-Tyr42-GRP) [nM]	IC50 ([1]; 50 pM [125I]-Tyr-NMB) [nM]	IC50 ([2]; 50 pM [125I]-Tyr42-GRP) [nM]	IC50 ([2]; 50 pM [125I]-Tyr-NMB) [nM]	Ki [3] [nM]	Direct binding (in words) [3]	Intracellular Ca2+ (in words) [4]	Intracellular Ca2+ (in words) [5]	Luciferase stimulation (in words) [6]
GSHWAVGHLM-NH2 [GRP, gastrin-releasing peptide]	0.15	0.18	0.17	0.54	> 1000	no binding was detected	remarkable increase of Ca^2+ ions in cells	no stimulation was observed	stimulation of luciferase units cannot be detected
neuromedin B [NMB]	1.35	2.26	1.74	2.65	> 1000	no binding	remarkable increase of Ca^2+ ions in cells	no stimulation was observed	stimulation of luciferase units cannot be detected
